# Measurements published in patent publication US8476197B2, “Aminopropenoates as fungicides” (priority 2009, dated 2013).
# Marks after values point to notes of the source that are not given here.
# Details: pH 2.3
row,Log P,SMILES
1,2.42,CCOC(=O)C(C#N)=C(NC1CCSC1=O)c1cccnc1Cl (racemic) [Compound 44]

# Same assay, conditions: pH 2.7
row,SMILES,Log P
1,CCOC(=O)C(C#N)=C(NC(C)c1nccs1)c1c(C(F)F)nn(C)c1F (mixture of isomers) [Compound 309],2.73^[a]
2,CC(C)C(C)NC(=C(C#N)C(=O)NC1CC1(C)C)c1cccnc1Cl (mixture of isomers) [Compound 1495],3.72^[a]
3,CCOC(=O)C(C#N)=C(NC(C)C(C)OC)c1cnn(C)c1Cl (mixture of isomers) [Compound 1543],2.67^[a]
4,CCOC(=O)C(C#N)=C(NC(C)C(C)CC)c1cnn(C)c1Cl (mixture of isomers) [Compound 1544],3.6^[a]
5,CCOC(=O)C(C#N)=C(NC(C)c1nc(C)c(C)s1)c1cn(C)nc1C(F)F (racemic) [Compound 33],2.96^[a]
6,CCOC(=O)C(C#N)=C(NC(C)c1nccs1)c1cn(C)nc1C(F)F (racemic) [Compound 34],2.4^[a]
7,CCOC(=O)C(C#N)=C(NC(C)Cc1c[nH]c2ccccc12)c1cn(C)nc1C(F)F (racemic) [Compound 35],3.25^[a]
8,CCOC(=O)C(C#N)=C(NC(C)c1ccccn1)c1cn(C)nc1C(F)F (racemic) [Compound 36],2.33^[a]
9,COC(=O)C(C#N)=C(NC(C)c1nc(C)c(C)s1)c1cn(C)nc1C(F)F (racemic) [Compound 47],2.65^[a]
10,CCOC(=O)C(C#N)=C(NC(c1cc2ccccc2s1)C(F)(F)F)c1cn(C)nc1C(F)F (racemic) [Compound 48],4.1^[a]
11,CCOC(=O)C(C#N)=C(NC(C)c1nc(C)c(C)s1)c1nsc(Cl)c1Cl (racemic) [Compound 53],4.01^[a]
12,COC(=O)C(C#N)=C(NC(C)Cc1c[nH]c2ccccc12)c1cn(C)nc1C(F)F (racemic) [Compound 57],3^[a]
13,COC(=O)C(C#N)=C(NC(C)c1ccccn1)c1cn(C)nc1C(F)F (racemic) [Compound 59],2.05^[a]
14,COC(=O)C(C#N)=C(NC(c1cc2ccccc2s1)C(F)(F)F)c1cn(C)nc1C(F)F (racemic) [Compound 60],3.83^[a]
15,COC(=O)C(C#N)=C(NC(C)c1nccs1)c1cn(C)nc1C(F)F (racemic) [Compound 61],2.13^[a]
16,CCOC(=O)C(C#N)=C(NC(C)c1nccs1)c1cn(C)nc1C(F)(F)F (racemic) [Compound 63],2.78^[a]
17,COC(=O)C(C#N)=C(NC(C)c1nc(C)c(C)s1)c1sc(C)nc1C(F)(F)F (racemic) [Compound 131],3.46^[a]

# Next, values leading:
row,Log P,SMILES
1,3.09^[a],CCOC(=O)C(C#N)=C(NC(C)c1nccs1)c1c(C(F)(F)F)nn(C)c1F (mixture of isomers) [Compound 308]
2,3.12^[a],CCOC(=O)C(C#N)=C(NC(C)c1ccccn1)c1c(C(F)(F)F)nn(C)c1F (mixture of isomers) [Compound 310]
3,4.14^[a],CCOC(=O)C(C#N)=C(NC(C)c1ccc(F)cc1)c1sccc1C(F)(F)F (mixture of isomers) [Compound 438]
4,4.54^[a],CCOC(=O)C(C#N)=C(NC(C)c1ccc(C)cc1)c1sccc1C(F)(F)F (mixture of isomers) [Compound 439]
5,4.16^[a],CCOC(=O)C(C#N)=C(NC(C)c1ccccc1)c1sccc1C(F)(F)F (mixture of isomers) [Compound 440]
6,4.01^[a],COC(=O)C(C#N)=C(NC(C)CCc1ccccc1)c1sc(C)nc1C(F)(F)F (mixture of isomers) [Compound 441]
7,3.64^[a],COC(=O)C(C#N)=C(NC(C)c1ccc(F)cc1)c1sc(C)nc1C(F)(F)F (mixture of isomers) [Compound 442]
8,4.01^[a],COC(=O)C(C#N)=C(NC(C)c1ccc(C)cc1)c1sc(C)nc1C(F)(F)F (mixture of isomers) [Compound 443]
9,3.62^[a],COC(=O)C(C#N)=C(NC(C)c1ccccc1)c1sc(C)nc1C(F)(F)F (mixture of isomers) [Compound 444]
10,4.51^[a],CCOC(=O)C(C#N)=C(NC(C)CCc1ccccc1)c1sccc1Br (mixture of isomers) [Compound 445]
11,4.06^[a],CCOC(=O)C(C#N)=C(NC(C)c1ccc(F)cc1)c1sccc1Br (mixture of isomers) [Compound 446]
12,4.49^[a],CCOC(=O)C(C#N)=C(NC(C)c1ccc(C)cc1)c1sccc1Br (mixture of isomers) [Compound 447]
13,4.09^[a],CCOC(=O)C(C#N)=C(NC(C)c1ccccc1)c1sccc1Br (mixture of isomers) [Compound 448]
14,4.36^[a],CCOC(=O)C(C#N)=C(NC(C)CCc1ccccc1)c1sc(C)nc1C(F)(F)F (mixture of isomers) [Compound 449]
15,3.96^[a],CCOC(=O)C(C#N)=C(NC(C)c1ccc(F)cc1)c1sc(C)nc1C(F)(F)F (mixture of isomers) [Compound 450]
16,4.36^[a],CCOC(=O)C(C#N)=C(NC(C)c1ccc(C)cc1)c1sc(C)nc1C(F)(F)F (mixture of isomers) [Compound 451]
17,3.99^[a],CCOC(=O)C(C#N)=C(NC(C)c1ccccc1)c1sc(C)nc1C(F)(F)F (mixture of isomers) [Compound 452]
18,3.62^[a],CCOC(=O)C(C#N)=C(NC(C)CCc1ccccc1)c1cn(C)nc1C(F)F (mixture of isomers) [Compound 453]
19,3.21^[a],CCOC(=O)C(C#N)=C(NC(C)c1ccc(F)cc1)c1cn(C)nc1C(F)F (mixture of isomers) [Compound 454]

row,Log P,SMILES
1,3.51^[a],CCOC(=O)C(C#N)=C(NC(C)c1ccc(C)cc1)c1cn(C)nc1C(F)F (mixture of isomers) [Compound 455]
2,3.17^[a],CCOC(=O)C(C#N)=C(NC(C)c1ccccc1)c1cn(C)nc1C(F)F (mixture of isomers) [Compound 456]
3,3.64^[a],CCOC(=O)C(C#N)=C(NC(C)c1ccc(Cl)cc1)c1cn(C)nc1C(C)F (mixture of isomers) [Compound 520]
4,4.04^[a],CCOC(=O)C(C#N)=C(NC(C)c1nc(C)c(C)s1)c1ncc(C(F)(F)F)cc1Cl (racemic) [Compound 37]
5,2.37^[a],CCOC(=O)C(C#N)=C(NC(C)c1nccs1)c1c(C)nn(C)c1F (racemic) [Compound 38]
6,4.07^[a],CCOC(=O)C(C#N)=C(NC(C)Cc1c[nH]c2ccccc12)c1ncc(C(F)(F)F)cc1Cl (racemic) [Compound 41]
7,3.44^[a],CCOC(=O)C(C#N)=C(NC(C)c1ccccn1)c1ncc(C(F)(F)F)cc1Cl (racemic) [Compound 43]
8,2.94^[a],CCOC(=O)C(C#N)=C(NC(C)c1nc(C)c(C)s1)c1c(C)nn(C)c1F (racemic) [Compound 45]
9,3.07^[a],CCOC(=O)C(C#N)=C(NC(C)Cc1c[nH]c2ccccc12)c1c(C)nn(C)c1F (racemic) [Compound 46]
10,2.28^[a],CCOC(=O)C(C#N)=C(NC(C)c1ccccn1)c1c(C)nn(C)c1F (racemic) [Compound 50]
11,4.25^[a],CCOC(=O)C(C#N)=C(NC(c1cc2ccccc2s1)C(F)(F)F)c1c(C)nn(C)c1F (racemic) [Compound 51]
12,4.1^[a],CCOC(=O)C(C#N)=C(NC(C)Cc1c[nH]c2ccccc12)c1nsc(Cl)c1Cl (racemic) [Compound 54]
13,3.29^[a],CCOC(=O)C(C#N)=C(NC(C)c1nccs1)c1nsc(Cl)c1Cl (racemic) [Compound 55]
14,4.9^[a],CCOC(=O)C(C#N)=C(NC(c1cc2ccccc2s1)C(F)(F)F)c1sccc1Br (racemic) [Compound 129]
15,4.87^[a],CCOC(=O)C(C#N)=C(NC(c1cc2ccccc2s1)C(F)(F)F)c1ccsc1Br (racemic) [Compound 130]
16,3.6^[a],COC(=O)C(C#N)=C(NC(C)Cc1c[nH]c2ccccc12)c1sc(C)nc1C(F)(F)F (racemic) [Compound 133]
17,2.77^[a],COC(=O)C(C#N)=C(NC(C)c1ccccn1)c1sc(C)nc1C(F)(F)F (racemic) [Compound 135]
18,2.49^[a],CCOC(=O)C(C#N)=C(NC(C)c1ccccn1)c1c(C)nn(C)c1Cl (racemic) [Compound 136]

# Same assay, conditions: pH 7.5
row,SMILES,Log P
1,CCOC(=O)C(C#N)=C(NC(C)C(F)(F)F)c1cccnc1Cl (mixture of isomers) [Compound 806],2.9
2,C=CCOC(=O)C(C#N)=C(NC(C)C1CC1)c1cccnc1Cl (mixture of isomers) [Compound 906],3.08
3,CCOC(=O)C(C#N)=C(NC(C)C1CC1)c1cccnc1Cl (mixture of isomers) [Compound 913],2.9
4,CCOC(=O)C(C#N)=C(NC(C)C1CC1)c1ccc(Cl)nc1Cl (mixture of isomers) [Compound 914],3.54
5,COC(=O)C(C#N)=C(NC(C)C(C)(C)C)c1cccnc1Cl (mixture of isomers) [Compound 916],3.14
6,CCOC(=O)C(C#N)=C(NC1CCCCC1O)c1cccnc1Cl (mixture of isomers) [Compound 1064],2.27
7,CC(NC(=C(C#N)C(=O)OC1CCC1)c1cccnc1Cl)C1CC1 (mixture of isomers) [Compound 1245],3.46
8,COC(=O)C(C#N)=C(NC(C)C1CC1)c1cccnc1Cl (mixture of isomers) [Compound 1307],2.58
9,CCOC(=O)C(C#N)=C(NC(C)C=NOC)c1cccnc1Cl (mixture of isomers) [Compound 1322],2.49
10,CCOC(=O)C(C#N)=C(NC(C)CCCC(C)C)c1cccnc1Cl (mixture of isomers) [Compound 1582],4.47
11,CCOC(=O)C(C#N)=C(NC1CCSC1=O)c1cccnc1Cl (racemic) [Compound 44],2.23

# Other lines, results leading:
row,Log P,SMILES
1,4.62,CCOC(=O)C(C#N)=C(NC(C)CCc1c(Cl)cccc1Cl)c1cccnc1Cl (mixture of isomers) [Compound 429]
2,3.09,CCOC(=O)C(C#N)=C(NC(C)CSC)c1ccc(C)nc1Cl (mixture of isomers) [Compound 633]
3,3.76,CCOC(=O)C(C#N)=C(NC(C)Cc1ncc(C(F)(F)F)cc1Cl)c1cccnc1Cl (racemic) [Compound 49]
4,3.32,CCOC(=O)C(C#N)=C(NC(C)c1ncc(Br)s1)c1cccnc1Cl (racemic) [Compound 128]
